Measurements reported in patent US20110046385A1, “Polymorphs Of Prostaglandin Agonists And Methods For Making The Same” (priority 2007, published 2011).

Assays:
[1] = test system: Bone Morphogenetic Protein 7 (BMP-7) expression in 293S cells transfected with EP2; assay: Kidney regeneration assay: BMP-7 expression (Northern blot) in EP2 293S cells; type: cell-based, human; settings: 10^-6M, RNA at 8, 16 and 24 hours
Procedure: (§1) Methods: 293S and EP2 293S cells are grown in Dulbecco's Modified Eagle medium (DMEM, Gibco, BRL; Gaithersburg, Md.). […] Cells are harvested and RNA is extracted at 8, 16 and 24 hours. Northern blot analysis of total RNA ([…]) is carried out by probing the blots with ^32P-labeled BMP-7 probe. The blots are normalized for RNA loading by hybridization with ^32P-labeled 18s ribosomal RNA probe. […] Given the known role of BMP-7 in kidney regeneration and the ability of an prostaglandin agonist to induce BMP-7 expression in 293S kidney cells in a time and receptor specific manner indicates a role for prostaglandin agonist in kidney regeneration.

[2] = test system: trabecular bone in the tibial metaphysis; settings: daily intraosseous injections into left tibia metaphysis for 14 days; cited from earlier work
[3] = test system: Bone Morphogenetic Protein 7 (BMP-7) expression in wild type 293S cells; assay: Kidney regeneration assay: BMP-7 expression (Northern blot) in wild type 293S cells; type: cell-based, human; settings: parental 293S cell line, 10^-6M, RNA at 8, 16 and 24 hours
Procedure: as §1

[4] = test system: tibia defect site; settings: beagles, 0.2 mg/kg injected into tibia defect site twice a day for 10 days; cited from earlier work
[5] = test system: rib fracture site; settings: adult beagles, 0.2 mg injected into rib fracture sites twice a day for 10 days; cited from earlier work
[6] = test system: alveolar bone in the mandible; settings: dogs, local infusion for 3 weeks, 500 to 2000 μg per week; cited from earlier work

SMILES | induction of BMP-7 expression [1] | trabecular bone in the metaphysis [2] | induction of BMP-7 expression [3] | periosteal and cortical endosteal bone formation [4] | bone matrix formation at fracture site [5] | alveolar bone formation [6]
CCCCC[C@H](O)/C=C/[C@H]1[C@H](O)CC(=O)[C@@H]1C/C=C\CCCC(=O)O [PGE2, prostaglandin E2] | induce the expression of BMP-7 in the EP2 293S cells in a time dependent manner | significant increase of trabecular bone in the metaphysis | generally not observed |  |  | 
CCCCC[C@H](O)/C=C/[C@H]1[C@H](O)CC(=O)[C@@H]1CCCCCCC(=O)O [PGE1, prostaglandin E1] |  |  |  | more periosteal and cortical endosteal bone formation, with an increased amount of osteoid present | induced bone matrix formation on the periosteal envelope adjacent to the fracture site and its contralateral matching site | dramatic, localized formation of alveolar bone
